Tests used:
AR 1.0 cells [1] = test: Potentiation of doxorubicin toxicity: proliferation assay (sulphorhodamine B); type: cell-based, mouse
Description: (a) Selected compounds of formula (I) were examined for their ability to potentiate the toxicity of doxorubicin in AR 1.0 cells.

AR 1.0 cells [2] = test: Drug accumulation assay: daunorubicin accumulation in AR 1.0 cells; type: cell-based; conditions: Mus musculus, 100% = accumulation with verapamil 100 μM, 1 hr, 37° C.
Outline: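 AR 1.0 is the MDR-resistant subline of EMT6 mouse mammary carcinoma, grown in RPMI 1640 with 10% foetal calf serum and 2 mM glutamine at 37 °C, 5% CO2. Cells were seeded 48 h before the daunorubicin accumulation assay.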

AR 1.0 cells [3] = test: Potentiation index with doxorubicin titration; type: cell-based, mouse; conditions: for Potentiation Index at RMA concentration 10 nM: Table C1, RMA 10 nM; for Potentiation Index at RMA concentration 30 nM: Table C1, RMA 30 nM; for Potentiation Index at RMA concentration 50 nM: Table C1, RMA 50 nM; for Potentiation Index at RMA concentration 100 nM: Table C1, RMA 100 nM
Description: The EMT6 mouse mammary carcinoma cell line and the MDR resistant subline AR 1.0 were cultured in RPMI 1640 medium containing 10% foetal calf serum and 2 mM glutamine at 37° C. in 5% CO2. Cells were passaged between 1 in 200 and 1 in 2000 in the case of the parental cell line and between 1 in 20 and 1 in 200 in the case of the MDR resistant subline, after trypsinisation (0.25% trypsin, 0.2 gl^-1, EDTA). […]
(b) Cells were cultured for four days with a titration of doxorubicin (0.263 nM-17.24 μM) in the presence of a fixed concentration of each compound. Proliferation was quantified as described by Skehen et al, loc cit. The IC50 (concentration required to reduce proliferation to 50% of the untreated controls) for doxorubicin alone and with each compound were derived and used to calculate the potentiation index (PI): [formula]

[4] = Mus musculus, 96 h, compound alone, four day proliferation, read-out: Compound Toxicity (IC50)
[5] = with fixed doxorubicin 0.34 μm, four days, 5760 min, read-out: Toxicity with Cytotoxic Agent (IC50)

Structure (SMILES) | IC50 (AR 1.0 cells [1]; [4]) | IC50 (AR 1.0 cells [1]; [5]) | IC50 (AR 1.0 cells [2]) | Potentiation Index at RMA concentration 10 nM (AR 1.0 cells [3]) | Potentiation Index at RMA concentration 30 nM (AR 1.0 cells [3]) | Potentiation Index at RMA concentration 50 nM (AR 1.0 cells [3]) | Potentiation Index at RMA concentration 100 nM (AR 1.0 cells [3]) | Potentiation Index at RMA concentration 20 nM (AR 1.0 cells [3]; Table C1, RMA 20 nM) | toxicity of doxorubicin alone to AR 1.0 cells (AR 1.0 cells [1]; fixed concentration 0.34 μm)
COc1cc2c(cc1OC)CN(CCc1ccc(NC(=O)c3ccccc3NC(=O)c3ccccn3)cc1)CC2 [compound 9472, Pyridine-2-carboxylic acid (2-{4-[2-(6,7-dimethoxy-3,4-dihydro-1H-isoquinolin-2-yl)-ethyl]-phenylcarbamoyl}-phenyl)-amide] | 6500 nM | 120 nM | 500 nM | – | – | – | – | – | –
COc1cc2c(cc1OC)CN(CCNC(=O)c1ccccc1NC(=O)c1ccccc1)CC2 [compound 9351, 2-Benzoylamino-N-[2-(6,7-dimethoxy-3,4-dihydro-1H-isoquinolin-2-yl)-ethyl]-benzamide] | 43000 nM | 1300 nM | 9000 nM | – | – | – | – | – | –
COc1cc2c(cc1OC)CN(CCNC(=O)c1ccccc1NC(=O)c1cc3ccccc3[nH]1)CC2 [compound 9367] | 15000 nM | 500 nM | 1000 nM | – | – | – | – | – | –
COc1cc2c(cc1OC)CN(CCNC(=O)c1ccccc1NC(=O)c1nccc3ccccc13)CC2 [compound 9383, Isoquinoline-1-carboxylic acid {2-[2-(6,7-dimethoxy-3,4-dihydro-1H-isoquinolin-2-yl)-ethylcarbamoyl]-phenyl}-amide] | 40000 nM | – | 2000 nM | – | – | – | – | – | –
COc1cc2c(cc1OC)CN(CCc1ccc(NC(=O)c3ccccc3NC(=O)c3cccc(OC(C)=O)c3)cc1)CC2 [compound 9540, Acetic acid 3-(2-{4-[2-(6,7-dimethoxy-3,4-dihydro-1H-isoquinolin-2-yl)-ethyl]-phenylcarbamoyl}-phenylcarbamoyl)-phenyl ester] | 6200 nM | 1000 nM | 1200 nM | – | – | – | – | – | –
COc1cc2c(cc1OC)CN(CCNC(=O)c1ccccc1NC(=O)c1cnc3ccccc3n1)CC2 [compound 9347, Quinoxaline-2-carboxylic acid {2-[2-(6,7-dimethoxy-3,4-dihydro-1H-isoquinolin-2-yl)-ethylcarbamoyl]-phenyl}-amide] | 35000 nM | 600 nM | 3000 nM | – | – | – | – | – | –
COc1cc2c(cc1OC)CN(CCNC(=O)c1ccccc1NC(=O)c1ccc3ccccc3n1)CC2 [compound 9385, Quinoline-2-carboxylic acid {2-[2-(6,7-dimethoxy-3,4-dihydro-1H-isoquinolin-2-yl)-ethylcarbamoyl]-phenyl}-amide] | 40000 nM | – | 1200 nM | – | – | – | – | – | –
COc1cc2c(cc1OC)CN(CCNC(=O)c1cc(-c3ccccc3)ccc1NC(=O)c1ccc(C(C)C)cc1)CC2 [compound 9432, 2-(4-Isopropyl-benzoylamino)-N-[2-(6,7-dimethoxy-3,4-dihydro-1H-isoquinolin-2-yl)-ethyl]-5-phenyl-benzamide] | 35000 nM | 200 nM | 3200 nM | – | – | – | – | – | –
CCN(CC)c1ccc(C(=O)Nc2ccccc2C(=O)NCCN2CCc3cc(OC)c(OC)cc3C2)cc1 [compound 9310, 2-(4-Diethylamino-benzoylamino)-N-[2-(6,7-dimethoxy-3,4-dihydro-1H-isoquinolin-2-yl)-ethyl]-benzamide] | 22000 nM | 240 nM | 1200 nM | – | – | – | – | – | –
COc1cc2c(cc1OC)CN(CCNC(=O)c1ccccc1NC(=O)c1ccc([N+](=O)[O-])cc1)CC2 [compound 9381, 2-(4-Nitro-benzoylamino)-N-[2-(6,7-dimethoxy-3,4-dihydro-1H-isoquinolin-2-yl)-ethyl]-benzamide] | 50000 nM | 1500 nM | 3000 nM | – | – | – | – | – | –
COc1cc2c(cc1OC)CN(CCc1ccc(NC(=O)c3ccccc3NC(=O)c3ccccc3OC(C)=O)cc1)CC2 [compound 9534, Acetic acid 2-(2-{4-[2-(6,7-dimethoxy-3,4-dihydro-1H-isoquinolin-2-yl)-ethyl]-phenylcarbamoyl}-phenylcarbamoyl)-phenyl ester] | 6600 nM | 0.2 nM | 140 nM | – | – | – | – | – | –
COc1cc2c(cc1OC)CN(CCNC(=O)c1ccccc1NC(=O)c1ccc(C(C)(C)C)cc1)CC2 [compound 9334, 2-(4-tert-Butyl-benzoylamino)-N-[2-(6,7-dimethoxy-3,4-dihydro-1H-isoquinolin-2-yl)-ethyl]-benzamide] | 8000 nM | 50 nM | 1300 nM | – | – | – | – | – | –
COc1cc2c(cc1OC)CN(CCc1ccc(NC(=O)c3ccccc3NC(=O)c3cccnc3)cc1)CC2 [compound 9482, N-(2-{4-[2-(6,7-Dimethoxy-3,4-dihydro-1H-isoquinolin-2-yl)-ethyl]-phenylcarbamoyl}-phenyl)-nicotinamide] | 12000 nM | 220 nM | 540 nM | – | – | – | – | – | –
COc1cc2c(cc1OC)CN(CCc1ccc(NC(=O)c3ccccc3NC(=O)c3cccc(O)c3)cc1)CC2 [compound 9549, 2-(3-Hydroxy-benzoylamino)-N-{4-[2-(6,7-dimethoxy-3,4-dihydro-1H-isoquinolin-2-yl)-ethyl]-phenyl}-benzanlide] | 5600 nM | 520 nM | 4300 nM | – | – | – | – | – | –
COc1cc2c(cc1OC)CN(CCc1ccc(NC(=O)c3ccccc3NC(=O)c3ccc4ccccc4n3)cc1)CC2 [compound 9545, Quinoline-2-carboxylic acid (2-{4.-[2-(6,7-dimethoxy-3,4-dihydro-1H-isoquinolin-2-yl)-ethyl]-phenylcarbamoyl}-phenyl)-amide] | 1700 nM | – | 800 nM | – | – | – | – | – | –
O=C(Nc1ccccc1C(=O)Nc1ccc(CCN2CCc3cc4c(cc3C2)OCO4)cc1)c1cnc2ccccc2c1 [compound 9664, Quinoline-3-carboxylic acid (2-{4-[2-(7,8-dihydro-5H-[1,3]dioxolo[4,5-g]isoquinolin-6-yl)-ethyl]-phenylcarbamoyl}-phenyl)-amide] | – | – | 1680 nM | 1 | 1.9 | 37 | 116 | – | –
COc1cc2c(cc1OC)CN(CCNC(=O)c1ccccc1NC(=O)c1ccc(Br)cc1)CC2 [compound 9380, 2-(4-Bromo-benzoylamino)-N-[2-(6,7-dimethoxy-3,4-dihydro-1H-isoquinolin-2-yl)-ethyl]-benzamide] | 40000 nM | 500 nM | 900 nM | – | – | – | – | – | –
COc1cc2c(cc1OC)CN(CCNC(=O)c1ccccc1NC(=O)c1cc3ccccc3cn1)CC2 [compound 9389, Isoquinoline-3-carboxylic acid {2-[2-(6,7-dimethoxy-3,4-dihydro-1H-isoquinolin-2-yl)-ethylcarbamoyl]-phenyl}-amide] | 30000 nM | – | 1800 nM | – | – | – | – | – | –
COc1cc2c(cc1OC)CN(CCc1ccc(NC(=O)c3cscc3NC(=O)c3cnc4ccccc4c3)cc1)CC2 [compound 9616, Quinoline-3-carboxylic acid (4-{4-[2-(6,7-dimethoxy-3,4-dihydro-1H-isoquinolin-2-yl)-ethyl]-phenylcarbamoyl}-thiophen-3-yl)-amide] | – | – | 113 nM | 13 | 142 | 143 | 185 | – | –
COc1cc2c(cc1OC)CN(CCSc1ccc(NC(=O)c3ccccc3NC(=O)c3cnc4ccccc4c3)cc1)CC2 [compound 9621, Quinoline-3-carboxylic acid (2-{4-[2-(6,7-dimethoxy-3 ,4-dihydro-1H-isoquinolin-2-yl)-ethylsulfanyl]-phenylcarbamoyl}-phenyl)-amide] | – | – | 453 nM | 1.0 | 1.6 | 4.4 | 25 | 1.3 | –
COc1ccc(CCN(C)CCc2ccc(NC(=O)c3ccccc3NC(=O)c3cnc4ccccc4c3)cc2)cc1OC [compound 9630, Quinoline-3-carboxylic acid {2-[4-(2-{[2-(3,4-dimethoxy-phenyl)-ethyl]-methyl-amino}-ethyl)-phenylcarbamoyl]-phenyl}-amide] | – | – | 235 nM | 1 | 2 | 6 | 26 | – | –
COc1cccc2c1C(=O)c1c(O)c3c(c(O)c1C2=O)C[C@@](O)(C(=O)CO)C[C@@H]3O[C@H]1C[C@H](N)[C@H](O)[C@H](C)O1 [doxorubicin, reference compound] | – | – | – | – | – | – | – | – | non-toxic
COc1cc2c(cc1OC)CN(CCc1cccc(NC(=O)c3ccccc3NC(=O)c3cnc4ccccc4c3)c1)CC2 [compound 9633, Quinoline-3-carboxylic acid (2-{3-[2-(6,7-dimethoxy-3,4-dihydro-1H-isoquinolin-2-yl)-ethyl]-phenylcarbamoyl}-phenyl)-amide] | – | – | 593 nM | 1.0 | 1.3 | 3.4 | 13.7 | – | –
